Converted amounts (≈) assume the structure as drawn. Each block holds one molecule with its values, some of them ahead of it. The source made the active and inactive calls. The calls are words filed in the database; no cut-off is given here.
Assays:
[1] = target: Transient receptor potential cation channel subfamily V member 1 (Rattus norvegicus) (UniProt O35433); assay: Antagonist activity against capsaicin-mediated activation of rat TRPV1 by FLIPR; type: functional
Liver microsomes = assay: (§1) Intrinsic clearance in human liver microsomes; type: ADME, Microsome; settings: microsomes
[2] = Aqueous solubility of the compound; type: physicochemical
[3] = Clearance in guinea pig; type: ADME, organism-based, Cavia porcellus; settings: in vivo
[4] = target: Transient receptor potential cation channel subfamily V member 1 (Cavia porcellus) (UniProt Q6R5A3); assay: Activity against adjuvant-induced arthritis assessed as reversal of allodynia in guinea pig at 10 mg/kg, po; type: functional, organism-based; parameters: dose 10 mg/kg
Cavia porcellus = species on record: Cavia porcellus; assay: Intrinsic clearance in guinea pig liver microsomes; type: ADME, Microsome
[5] = Half life in rat; type: ADME, organism-based; settings: in vivo
[6] = Volume of distribution in dog; type: ADME, organism-based, Canis lupus familiaris; settings: in vivo, read-out: Vdss
[7] = target: Transient receptor potential cation channel subfamily V member 1 (Homo sapiens) (UniProt Q8NER1); assay: Blockade of heat activated human TRPV1 at 1 uM; type: functional
[8] = target: Transient receptor potential cation channel subfamily V member 1 (Homo sapiens) (UniProt Q8NER1); assay: Inhibition of capsaicin-mediated activation of human TRPV1 in HEK293 cells at 1 uM by patch clamp method; type: functional, cell-based
[9] = Volume of distribution in rat; type: ADME, organism-based; settings: in vivo, read-out: Vdss
[10] = target: Transient receptor potential cation channel subfamily V member 1 (Rattus norvegicus) (UniProt O35433); assay: Activity against capsaicin-induced secondary hyperalgesia assessed as reversal of allodynia in rat at 30 mg/kg, po after 2 hrs; type: functional, organism-based; parameters: dose 30 mg/kg
[11] = Half life in dog; type: ADME, organism-based, Canis lupus familiaris; settings: in vivo
[12] = target: Transient receptor potential cation channel subfamily V member 1 (Homo sapiens) (UniProt Q8NER1); assay: Blockade of pH activated human TRPV1 at 1 uM; type: functional
[13] = Clearance in dog; type: ADME, organism-based, Canis lupus familiaris; settings: in vivo
[14] = Bioavailability in rat at 3 mg/kg, po; type: ADME, organism-based; settings: in vivo
[15] = Half life in guinea pig; type: ADME, organism-based, Cavia porcellus; settings: in vivo
[16] = Clearance in rat; type: ADME, organism-based; settings: in vivo
Canis familiaris = species on record: Canis familiaris; assay: Intrinsic clearance in dog liver microsomes; type: ADME, Canis lupus familiaris, Microsome
[17] = Volume of distribution in guinea pig; type: ADME, organism-based, Cavia porcellus; settings: in vivo, read-out: Vdss
[18] = Bioavailability in dog at 3 mg/kg, po; type: ADME, organism-based, Canis lupus familiaris; settings: in vivo
[19] = Solubility in stimulated gastric fluid; type: physicochemical; settings: simulated gastric fluid
[20] = target: Transient receptor potential cation channel subfamily V member 1 (Rattus norvegicus) (UniProt O35433); assay: Activity against capsaicin-induced secondary hyperalgesia assessed as reversal of allodynia in rat at 10 mg/kg, po after 2 hrs; type: functional, organism-based; parameters: dose 10 mg/kg
[21] = Bioavailability in guinea pig at 1 mg/kg, po; type: ADME, organism-based, Cavia porcellus; settings: in vivo
[22] = target: Transient receptor potential cation channel subfamily V member 1 (Cavia porcellus) (UniProt Q6R5A3); assay: Antagonist activity against capsaicin-mediated activation of guinea pig TRPV1 by FLIPR; type: functional
[23] = as §1; type: ADME, Microsome; settings: liver microsomes
[24] = target: Transient receptor potential cation channel subfamily V member 1 (Homo sapiens) (UniProt Q8NER1); assay: Inhibition of heat-mediated activation of human TRPV1 in HEK293 cells at 1 uM by patch clamp method

Sequence of Transient receptor potential cation channel subfamily V member 1 (Rattus norvegicus) (O35433 whole entry): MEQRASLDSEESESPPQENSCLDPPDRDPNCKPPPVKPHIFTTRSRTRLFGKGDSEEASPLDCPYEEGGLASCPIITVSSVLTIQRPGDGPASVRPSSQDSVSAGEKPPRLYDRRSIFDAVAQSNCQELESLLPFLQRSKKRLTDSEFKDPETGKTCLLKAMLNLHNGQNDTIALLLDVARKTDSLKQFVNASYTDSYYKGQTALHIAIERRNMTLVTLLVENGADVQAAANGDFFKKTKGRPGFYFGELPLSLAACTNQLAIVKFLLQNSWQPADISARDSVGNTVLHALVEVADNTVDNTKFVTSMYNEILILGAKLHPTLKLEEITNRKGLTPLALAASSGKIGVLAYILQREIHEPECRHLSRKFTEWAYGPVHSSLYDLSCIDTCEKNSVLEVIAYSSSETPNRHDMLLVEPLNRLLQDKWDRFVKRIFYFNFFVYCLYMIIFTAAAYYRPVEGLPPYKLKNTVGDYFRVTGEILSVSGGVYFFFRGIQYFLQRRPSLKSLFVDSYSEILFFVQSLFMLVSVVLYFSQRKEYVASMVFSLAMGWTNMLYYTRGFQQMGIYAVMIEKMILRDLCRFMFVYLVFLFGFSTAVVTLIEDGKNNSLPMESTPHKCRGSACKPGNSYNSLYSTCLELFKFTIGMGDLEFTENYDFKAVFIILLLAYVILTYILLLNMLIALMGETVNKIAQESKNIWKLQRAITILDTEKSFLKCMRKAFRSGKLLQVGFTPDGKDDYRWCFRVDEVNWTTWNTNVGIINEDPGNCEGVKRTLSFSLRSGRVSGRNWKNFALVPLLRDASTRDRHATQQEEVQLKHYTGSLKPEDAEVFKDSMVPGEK
Sequence of Transient receptor potential cation channel subfamily V member 1 (Homo sapiens) (Q8NER1 whole entry): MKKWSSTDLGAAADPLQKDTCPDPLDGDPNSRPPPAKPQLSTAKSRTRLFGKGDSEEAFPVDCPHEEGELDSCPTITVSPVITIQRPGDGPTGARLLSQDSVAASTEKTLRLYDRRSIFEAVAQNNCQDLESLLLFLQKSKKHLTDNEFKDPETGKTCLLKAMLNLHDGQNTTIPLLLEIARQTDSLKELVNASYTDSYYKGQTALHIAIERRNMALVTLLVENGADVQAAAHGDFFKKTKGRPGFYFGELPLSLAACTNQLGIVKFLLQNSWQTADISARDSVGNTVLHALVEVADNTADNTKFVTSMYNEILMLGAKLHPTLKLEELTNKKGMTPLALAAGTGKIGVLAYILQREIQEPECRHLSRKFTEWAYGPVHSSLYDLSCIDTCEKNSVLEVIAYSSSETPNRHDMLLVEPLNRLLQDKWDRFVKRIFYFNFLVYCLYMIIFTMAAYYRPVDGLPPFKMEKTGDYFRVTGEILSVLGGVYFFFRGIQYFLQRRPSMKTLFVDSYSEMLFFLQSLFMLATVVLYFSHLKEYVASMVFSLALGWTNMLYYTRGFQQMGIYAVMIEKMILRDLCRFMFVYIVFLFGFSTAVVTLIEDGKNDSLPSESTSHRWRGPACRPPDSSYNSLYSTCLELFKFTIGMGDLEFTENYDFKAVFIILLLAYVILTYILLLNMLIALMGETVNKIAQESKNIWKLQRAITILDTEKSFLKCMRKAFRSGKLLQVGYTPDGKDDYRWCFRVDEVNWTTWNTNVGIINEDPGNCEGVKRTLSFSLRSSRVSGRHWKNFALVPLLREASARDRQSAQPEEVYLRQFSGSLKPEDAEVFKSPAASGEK
Sequence of Transient receptor potential cation channel subfamily V member 1 (Cavia porcellus) (Q6R5A3 whole entry): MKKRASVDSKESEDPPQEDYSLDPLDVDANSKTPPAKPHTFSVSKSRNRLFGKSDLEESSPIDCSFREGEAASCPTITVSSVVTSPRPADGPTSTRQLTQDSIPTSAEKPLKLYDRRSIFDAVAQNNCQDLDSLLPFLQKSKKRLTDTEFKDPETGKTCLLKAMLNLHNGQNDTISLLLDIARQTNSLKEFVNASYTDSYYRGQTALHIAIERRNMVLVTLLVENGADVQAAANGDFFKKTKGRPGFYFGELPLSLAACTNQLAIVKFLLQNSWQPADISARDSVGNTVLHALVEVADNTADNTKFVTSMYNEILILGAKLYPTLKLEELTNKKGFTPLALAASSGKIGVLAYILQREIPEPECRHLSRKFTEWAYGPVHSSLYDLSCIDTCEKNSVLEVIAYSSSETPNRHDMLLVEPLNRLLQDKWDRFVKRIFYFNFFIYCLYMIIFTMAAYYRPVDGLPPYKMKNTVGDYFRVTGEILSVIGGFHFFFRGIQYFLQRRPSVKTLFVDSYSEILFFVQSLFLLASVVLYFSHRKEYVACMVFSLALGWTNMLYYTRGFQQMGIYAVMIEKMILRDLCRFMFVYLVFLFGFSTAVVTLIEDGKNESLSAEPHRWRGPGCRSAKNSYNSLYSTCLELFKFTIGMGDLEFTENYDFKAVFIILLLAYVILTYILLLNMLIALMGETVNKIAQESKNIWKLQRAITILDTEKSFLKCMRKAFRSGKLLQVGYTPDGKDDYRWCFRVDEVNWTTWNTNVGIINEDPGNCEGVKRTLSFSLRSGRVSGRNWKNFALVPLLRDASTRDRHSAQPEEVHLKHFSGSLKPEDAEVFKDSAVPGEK

Structure (SMILES): O=C(Nc1ccccc1Br)N[C@@H]1CCN(c2cccc(C(F)(F)F)n2)C1
pKb [1]: 7.2

Structure (SMILES): O=C(Nc1ccccc1Br)N[C@@H]1CCN(c2ccccn2)C1
pKb [1]: < 6.6

Structure (SMILES): O=C(Nc1ccccc1Br)N[C@@H]1CCN(c2ccc(Cl)cn2)C1
pKb [1]: 7.3

Structure (SMILES): Cc1ccc(N2CC[C@@H](NC(=O)Nc3ccccc3Br)C2)cc1F
pKb [1]: 8.3
CL (Liver microsomes): <= 4 ml/min/g
solubility [2]: < 100 µg/mL

Structure (SMILES): N#Cc1ccc(N2CC[C@@H](NC(=O)Nc3ccccc3Br)C2)nc1
pKb [1]: 6.7

Structure (SMILES): O=C(Nc1ccccc1Br)N[C@@H]1CCN(c2ccc(Br)cn2)C1
pKb [1]: 7.2

Structure (SMILES): Cc1cccc(N2CC[C@H](NC(=O)Nc3ccccc3Br)C2)c1
pKb [1]: < 6.8

Structure (SMILES): O=C(Nc1ccccc1Br)N[C@@H]1CCN(c2ccc(C(F)(F)F)cn2)C1 [SB-705498]
pKb [1]: 7.5
clearance [3]: 34 mL/min/kg
Activity [4]: 80%
CL (Cavia porcellus): 4.2 mL/min/g
half-life [5]: 3.1 h
Vd [6]: 1.9 L/kg
Activity [7]: 97%
inhibition [8]: 102%
Vd [9]: 0.9 L/kg
Activity [10]: Active
half-life [11]: 3.4 h
Activity [12]: 104%
clearance [13]: 11 mL/min/kg
bioavailability [14]: 86%
half-life [15]: 2.6 h
clearance [16]: 4 mL/min/kg
CL (Canis familiaris): 0.9 mL/min/g
Vd [17]: 3.6 L/kg
bioavailability [18]: 42%
solubility [19]: 400 µg/mL (≈ 932 µM)
Activity [20]: Active
bioavailability [21]: 39%
pKb [22]: 7.3

Structure (SMILES): O=C(Nc1ccccc1Br)N[C@@H]1CCN(c2ccc(F)c(F)c2)C1
pKb [1]: 8.1
CL (Liver microsomes): <= 4 ml/min/g
solubility [2]: < 100 µg/mL

Structure (SMILES): O=C(Nc1ccccc1Br)N[C@@H]1CCN(c2ncccc2C(F)(F)F)C1
pKb [1]: 7.1

Structure (SMILES): O=C(Nc1ccccc1Br)N[C@@H]1CCN(c2cccc(F)c2)C1
pKb [1]: 7.8
CL (Liver microsomes): <= 4 ml/min/g
solubility [2]: < 100 µg/mL

Structure (SMILES): O=C(Nc1ccccc1Br)N[C@@H]1CCN(c2cc(C(F)(F)F)ccn2)C1
pKb [1]: 6.9

Now from value to molecule:

pKb [1]: 6.8
Structure (SMILES): O=C(NCCN1CCc2ccccc21)Nc1ccccc1Br

pKb [1]: 7.3
Structure (SMILES): Cc1ccc2c(c1)CCN2CCNC(=O)Nc1ccccc1Br

pKb [1]: 7.4
Structure (SMILES): O=C(NCCN1CCc2c(F)cccc21)Nc1ccccc1Br

pKb [1]: 7.1
CLint scaled [23]: 19 mL/min/kg
Structure (SMILES): O=C(NCCN1CCc2cc(F)ccc21)Nc1ccccc1Br

pKb [1]: 7.8
CLint scaled [23]: 41 mL/min/kg
Structure (SMILES): CCN(CCNC(=O)Nc1ccccc1Br)c1cccc(C)c1

pKb [1]: 7.4
CLint scaled [23]: > 45 mL/min/kg
Structure (SMILES): Cc1ccc2c(c1)CCCN2CCNC(=O)Nc1ccccc1Br

pKb [1]: 7.4
Structure (SMILES): Cc1cccc2c1CCN2CCNC(=O)Nc1ccccc1Br

pKb [1]: 7.7
Activity [7]: Active
Activity [24]: Active
CL (Liver microsomes): <= 4 ml/min/g
Activity [12]: Active
solubility [2]: < 100 µg/mL
Structure (SMILES): Cc1cccc(N2CC[C@@H](NC(=O)Nc3ccccc3Br)C2)c1

pKb [1]: < 6.7
Structure (SMILES): Cc1ccc(N2CC[C@@H](NC(=O)Nc3ccccc3Br)C2)nc1
